Assay results as given in the NIST ThermoML archive (doi:10.1016/j.jct.2014.07.026).

Experiment: mn = molality of the nth substance listed, in mol/kg
Settings: 100 kPa, Liquid; for mass density: Vibrating tube method; for speed of sound: Frequency=2 MHz, Linear variable-path acoustic interferometer

CCCCn1cc[n+](C)c1.NCC(=O)[O-] [1-butyl-3-methylimidazolium glycinate] + O
Settings	mass density [kg/m3]	speed of sound [m/s]
293.15 K, m1 = 0.03911	999.516	–
293.15 K, m1 = 0.05766	1000.13	–
293.15 K, m1 = 0.07571	1000.71	–
293.15 K, m1 = 0.09405	1001.28	–
293.15 K, m1 = 0.1177	1002.03	–
293.15 K, m1 = 0.1634	1003.42	–
293.15 K, m1 = 0.2013	1004.58	–
293.15 K, m1 = 0.2535	1006.13	–
293.15 K, m1 = 0.2905	1007.2	–
293.15 K, m1 = 0.3496	1008.89	–
293.15 K, m1 = 0.4089	1010.57	–
293.15 K, m1 = 0.4607	1012	–
293.15 K, m1 = 0.5188	1013.58	–
298.15 K, m1 = 0.03911	998.332	–
298.15 K, m1 = 0.05112	–	1505.2
298.15 K, m1 = 0.05766	998.92	–
298.15 K, m1 = 0.07571	999.491	–
298.15 K, m1 = 0.09405	1000.03	–
298.15 K, m1 = 0.1057	–	1512.8
298.15 K, m1 = 0.1177	1000.77	–
298.15 K, m1 = 0.1479	–	1518.7
298.15 K, m1 = 0.1634	1002.14	–
298.15 K, m1 = 0.1966	–	1525.4
298.15 K, m1 = 0.2013	1003.25	–
298.15 K, m1 = 0.2458	–	1531.5
298.15 K, m1 = 0.2535	1004.78	–
298.15 K, m1 = 0.2904	–	1537.8
298.15 K, m1 = 0.2905	1005.83	–
298.15 K, m1 = 0.3486	–	1545.1
298.15 K, m1 = 0.3496	1007.53	–
298.15 K, m1 = 0.4012	–	1551.1
298.15 K, m1 = 0.4089	1009.11	–
298.15 K, m1 = 0.4523	–	1557.8
298.15 K, m1 = 0.4607	1010.51	–
298.15 K, m1 = 0.5188	1012.11	–
298.15 K, m1 = 0.5271	–	1566.9
303.15 K, m1 = 0.03911	996.915	–
303.15 K, m1 = 0.05766	997.485	–
303.15 K, m1 = 0.07571	998.049	–
303.15 K, m1 = 0.09405	998.596	–
303.15 K, m1 = 0.1177	999.306	–
303.15 K, m1 = 0.1634	1000.64	–
303.15 K, m1 = 0.2013	1001.73	–
303.15 K, m1 = 0.2535	1003.2	–
303.15 K, m1 = 0.2905	1004.25	–
303.15 K, m1 = 0.3496	1005.87	–
303.15 K, m1 = 0.4089	1007.48	–
303.15 K, m1 = 0.4607	1008.89	–
303.15 K, m1 = 0.5188	1010.43	–
308.15 K, m1 = 0.03804	995.245	–
308.15 K, m1 = 0.05959	995.908	–
308.15 K, m1 = 0.07881	996.479	–
308.15 K, m1 = 0.09916	997.101	–
308.15 K, m1 = 0.1199	997.708	–
308.15 K, m1 = 0.1512	998.623	–
308.15 K, m1 = 0.206	1000.16	–
308.15 K, m1 = 0.2462	1001.31	–
308.15 K, m1 = 0.2873	1002.43	–
308.15 K, m1 = 0.359	1004.36	–
308.15 K, m1 = 0.3954	1005.3	–
308.15 K, m1 = 0.4498	1006.76	–
308.15 K, m1 = 0.5188	1008.59	–
313.15 K, m1 = 0.03949	993.444	–
313.15 K, m1 = 0.05959	994.046	–
313.15 K, m1 = 0.07881	994.62	–
313.15 K, m1 = 0.09916	995.217	–
313.15 K, m1 = 0.1199	995.816	–
313.15 K, m1 = 0.1512	996.706	–
313.15 K, m1 = 0.206	998.24	–
313.15 K, m1 = 0.2462	999.361	–
313.15 K, m1 = 0.2873	1000.45	–
313.15 K, m1 = 0.359	1002.39	–
313.15 K, m1 = 0.3954	1003.31	–
313.15 K, m1 = 0.4498	1004.72	–
313.15 K, m1 = 0.5188	1006.52	–

CCCCn1cc[n+](C)c1.C[C@H](N)C(=O)[O-] [3-butyl-1-methyl-1H-imidazolium L-alaninate] + O
Settings	mass density [kg/m3]	speed of sound [m/s]
293.15 K, m1 = 0.03078	999.145	–
293.15 K, m1 = 0.04697	999.63	–
293.15 K, m1 = 0.06646	1000.21	–
293.15 K, m1 = 0.08363	1000.72	–
293.15 K, m1 = 0.0978	1001.14	–
293.15 K, m1 = 0.1393	1002.34	–
293.15 K, m1 = 0.1674	1003.15	–
293.15 K, m1 = 0.2011	1004.09	–
293.15 K, m1 = 0.2513	1005.48	–
293.15 K, m1 = 0.2946	1006.67	–
293.15 K, m1 = 0.3312	1007.64	–
293.15 K, m1 = 0.383	1009.05	–
293.15 K, m1 = 0.4337	1010.33	–
298.15 K, m1 = 0.03078	997.956	–
298.15 K, m1 = 0.04697	998.423	–
298.15 K, m1 = 0.06346	–	1507.5
298.15 K, m1 = 0.06646	998.985	–
298.15 K, m1 = 0.08363	999.477	–
298.15 K, m1 = 0.0978	999.884	–
298.15 K, m1 = 0.1393	1001.05	–
298.15 K, m1 = 0.1428	–	1519.5
298.15 K, m1 = 0.1674	1001.83	–
298.15 K, m1 = 0.1848	–	1526.1
298.15 K, m1 = 0.2011	1002.75	–
298.15 K, m1 = 0.2434	–	1534.3
298.15 K, m1 = 0.2513	1004.09	–
298.15 K, m1 = 0.2946	1005.25	–
298.15 K, m1 = 0.2968	–	1541.6
298.15 K, m1 = 0.3312	1006.21	–
298.15 K, m1 = 0.3455	–	1549.5
298.15 K, m1 = 0.383	1007.55	–
298.15 K, m1 = 0.3934	–	1555.4
298.15 K, m1 = 0.4337	1008.88	–
298.15 K, m1 = 0.4399	–	1561.4
298.15 K, m1 = 0.4872	–	1567.8
298.15 K, m1 = 0.546	–	1576.5
303.15 K, m1 = 0.03078	996.541	–
303.15 K, m1 = 0.04697	996.999	–
303.15 K, m1 = 0.06646	997.554	–
303.15 K, m1 = 0.08363	998.04	–
303.15 K, m1 = 0.0978	998.438	–
303.15 K, m1 = 0.1393	999.57	–
303.15 K, m1 = 0.1674	1000.34	–
303.15 K, m1 = 0.2011	1001.23	–
303.15 K, m1 = 0.2513	1002.54	–
303.15 K, m1 = 0.2946	1003.67	–
303.15 K, m1 = 0.3312	1004.62	–
303.15 K, m1 = 0.383	1005.95	–
303.15 K, m1 = 0.4337	1007.21	–
308.15 K, m1 = 0.03124	994.926	–
308.15 K, m1 = 0.05075	995.469	–
308.15 K, m1 = 0.06032	995.732	–
308.15 K, m1 = 0.08315	996.374	–
308.15 K, m1 = 0.09789	996.775	–
308.15 K, m1 = 0.1399	997.892	–
308.15 K, m1 = 0.181	998.999	–
308.15 K, m1 = 0.2108	999.761	–
308.15 K, m1 = 0.2555	1000.94	–
308.15 K, m1 = 0.2996	1002.03	–
308.15 K, m1 = 0.3385	1003.03	–
308.15 K, m1 = 0.3814	1004.06	–
308.15 K, m1 = 0.4337	1005.37	–
313.15 K, m1 = 0.03124	993.094	–
313.15 K, m1 = 0.05075	993.624	–
313.15 K, m1 = 0.06032	993.886	–
313.15 K, m1 = 0.08315	994.504	–
313.15 K, m1 = 0.09789	994.894	–
313.15 K, m1 = 0.1399	996.012	–
313.15 K, m1 = 0.181	997.076	–
313.15 K, m1 = 0.2108	997.849	–
313.15 K, m1 = 0.2555	998.984	–
313.15 K, m1 = 0.2996	1000.07	–
313.15 K, m1 = 0.3385	1001.05	–
313.15 K, m1 = 0.3814	1002.07	–
313.15 K, m1 = 0.4337	1003.34	–
